The results in this text go back to patent publication US10730870B2, “Compounds and methods for the enhanced degradation of targeted proteins” (Arvinas, Inc., priority 2015, dated 2020).

In assay [1] the target is His-tagged VHL protein (Homo sapiens (Human), UniProt P40337). Put plainly: Surface plasmon resonance (SPR) assay. Format: binding. The note with it: average of at least N=2, 1:1 fitting. How it is done:
The surface plasmon resonance (SPR) experiments were conducted on a Biacore3000 (GE Healthcare). His-tagged VHL protein was immobilized on a carboxymethylated dextran surface with nitriloacetic acid (NTA), taking advantage of NTA/Ni^2+ chelation. The prepared surface was allowed to equilibrate over three hours in running buffer (Ambion 1×PBS buffer @ pH 7/4, 0.005% Tween, 2% DMSO).
All compounds were prepared in 100% DMSO stock plates with a top concentration of 5 mM in a 3× serial dilution. Compounds were transferred from the stock plate to the assay plate and diluted into running buffer containing no DMSO. All compounds were run as a six-concentration series with a final assay top concentration of 100 uM. Data analysis was performed in Scrubber 2 (BioLogic software, Campbell, Australia). Blanks were subtracted and data was corrected for DMSO using a standard DMSO curve.
Table 2 illustrates VHL inhibition data (i.e., Kd, μM) of examples contained herein in a surface plasmon resonance (SPR) assay.
For orientation: SPR reads the build-up and loss of mass on a sensor chip optically.

Assay [2] relates to LNCap and VCaP cells. Put plainly: Apoptosis, cell death and anti-proliferation in LNCaP and VCaP cell systems. Format: cell-based. The note with it: increasing concentrations of AR agonist R1881 and cells containing the AR F876L mutation.

Sequence of His-tagged VHL protein (P40337 whole entry, looked up): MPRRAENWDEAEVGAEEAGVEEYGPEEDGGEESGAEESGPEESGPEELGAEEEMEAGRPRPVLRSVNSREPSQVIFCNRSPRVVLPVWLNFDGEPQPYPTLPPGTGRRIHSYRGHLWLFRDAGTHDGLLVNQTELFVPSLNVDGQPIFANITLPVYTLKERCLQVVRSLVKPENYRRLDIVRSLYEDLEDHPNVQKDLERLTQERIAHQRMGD
Sequence of His-tagged VHL protein (Q15370 whole entry partner, looked up): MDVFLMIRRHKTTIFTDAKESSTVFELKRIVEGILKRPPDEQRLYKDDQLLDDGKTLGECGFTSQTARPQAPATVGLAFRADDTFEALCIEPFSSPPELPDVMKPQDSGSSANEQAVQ
Sequence of His-tagged VHL protein (Q15369 whole entry partner, looked up): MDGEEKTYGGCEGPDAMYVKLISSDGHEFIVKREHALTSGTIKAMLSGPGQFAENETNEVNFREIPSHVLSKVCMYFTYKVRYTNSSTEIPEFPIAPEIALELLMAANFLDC

For the compound `CC[C@H](NC(=O)[C@@H]1C[C@@H](O)CN1C(=O)[C@@H](c1cc(C)no1)C(C)C)c1ccc(-c2scnc2C)cc1` [Example 207, (2S,4R)-4-hydroxy-N-[(1S)-1-[4-(4-methyl-1,3-thiazol-5-yl)phenyl]propyl]-1-[(2R)-3-methyl-2-(3-methyl-1,2-oxazol-5-yl)butanoyl]pyrrolidine-2-carboxamide], in assay [1], binding was characterised by a dissociation constant (Kd) of 240 nM. That is a sub-micromolar value.

For the compound `CNC(=O)c1ccc(N2C(=S)N(c3ccc(C#N)c(C(F)(F)F)c3)C(=O)C2(C)C)cc1F` [enzalutamide], the anti-proliferative activity result in assay [2] is “inactive”.

`Cc1cc([C@H](C(=O)N2C[C@H](O)C[C@H]2C(=O)N[C@@H](C)c2ccc(-c3scnc3C)cc2)C(C)C)on1` [Example 205, (2S,4R)-4-hydroxy-N-[(1S)-1-[4-(4-methyl-1,3-thiazol-5-yl)phenyl]ethyl]-1-[(2R)-3-methyl-2-(3-methyl-1,2-oxazol-5-yl)butanoyl]pyrrolidine-2-carboxamide] gave a Kd in assay [1] of 330 nM.

Broadly, the Kd is a measure of binding affinity in units of concentration. Read a high Kd as weaker binding.
